The record followed here is US20240383908A1, “SYNTHESIS AND APPLICATION OF PHOSPHATASE DEGRADER” (HINOVA PHARMACEUTICALS INC., priority 2021, published 2024).

Counter-ions that a name gives are not always drawn.

This assay has as its target T1, SHP2 protein (Homo sapiens, UniProt Q06124).
T1 sequence (Q06124 1-593): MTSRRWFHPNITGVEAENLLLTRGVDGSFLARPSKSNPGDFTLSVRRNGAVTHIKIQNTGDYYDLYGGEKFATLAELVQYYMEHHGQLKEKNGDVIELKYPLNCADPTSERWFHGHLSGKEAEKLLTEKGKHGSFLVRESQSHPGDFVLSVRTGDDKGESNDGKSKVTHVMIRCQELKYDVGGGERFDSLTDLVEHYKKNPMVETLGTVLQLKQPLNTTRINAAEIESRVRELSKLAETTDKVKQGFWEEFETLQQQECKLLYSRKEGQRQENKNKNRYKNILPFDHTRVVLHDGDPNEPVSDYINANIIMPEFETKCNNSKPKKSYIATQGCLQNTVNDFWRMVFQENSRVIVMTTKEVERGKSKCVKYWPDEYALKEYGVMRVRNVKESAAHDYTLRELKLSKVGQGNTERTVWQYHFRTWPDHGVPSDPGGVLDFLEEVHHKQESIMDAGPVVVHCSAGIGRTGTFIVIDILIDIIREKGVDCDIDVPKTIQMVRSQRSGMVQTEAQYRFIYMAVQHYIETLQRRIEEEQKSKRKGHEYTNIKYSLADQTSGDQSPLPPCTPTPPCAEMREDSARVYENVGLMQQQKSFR
In words: Degradation activity on SHP2 protein in MIA Paca-2 cells (Western blot, DC50). It counts as cell-based. Also on record: endogenous in cells; host or cells: MIA Paca-2 cells. As to conditions: read-out: Degradation activity for differenct cell lines MIA Paca-2 (DC50). On the procedure: (1) MV-411 cells were cultured in the cell culture medium, and then well-growing cells were selected and inoculated in a 12-well plate, with 1 mL/well and 1×10^6 cells/well. The plate was incubated overnight in a 5% CO2 cell incubator at 37° C.
(2) 10 mM storage solution of each drug was prepared using dimethylsulfoxide (DMSO). The stock solution was diluted gradually with DMSO before use, and then 1 μL of the compound solution was added to the cell culture well (to ensure that the DMSO concentration in the culture system was […]), so that the final drug concentration is 100 nM, 10 nM, 3 nM, 1 nM, 0.3 nM, and 0.1 nM. Two wells were set for each concentration. The plate was gently shaken and mixed. Additionally, negative control wells (containing an equal amount of DMSO) and positive control wells were included.
(3) After 24 hours of cultivation, the cells were lysed using RIPA cell lysate, and the proteins were extracted. The protein concentration was measured using a BCA assay kit. 5× concentrated protein buffer was loaded, heated at 100° C. for 5 min, and then the sample was stored at −20° C.
(4) For each well, 30 μg of protein was loaded to polyacrylamide gel for electrophoresis.
(5) The protein was transferred from polyacrylamide gel to PVDF membrane, and sealed at room temperature with 5% skimmed milk for 1 h, which was then incubated with the primary antibodies (Anti-SHP2 rabbit mAb and Anti-GAPDH rabbit mAb) at 4° C. overnight. The membrane was washed three times with TBST solution, 10 minutes for each time. After that, the membrane was incubated with the secondary antibodies (horseradish peroxidase labeled goat anti-rabbit IgG) at room temperature for 2 h, and then washed three times with TBST solution, 10 minutes for each time, followed by exposure.
(6) The images were analyzed with Image J grayscale, and the degradation ratio of protein bands in the test group was calculated, based on the negative control group (DMSO) (100%).
(7) Using the Dose-response-inhibition equation in the data processing software GraphPad Prism 8, the DC50 value was obtained (which represents the drug concentration corresponding to 50% degradation of the target protein).
Using similar methods and different cell lines, the degradation activity of the compound according to the present invention on SHP2 protein of different cell lines was tested under suitable culture conditions.
As for `CC1(N)CCN(c2cnc(Sc3cccc(NC(=O)CCN4CC=C(c5ccc(C(=O)NCc6ccc7c(c6)CN(C6CCC(=O)NC6=O)C7=O)nc5)C(C)(C)C4)c3)cn2)CC1` (stereo not drawn) [Compound 274], the DC50 (commonly the concentration at which degradation of the target reaches its halfway point) was > 1 µM.

Take `C[C@@H]1OCC2(CCN(c3cnc(Sc4cccc(NC(=O)CCN5CC=C(c6ccc(C(=O)NCc7ccc8c(c7)CN(C7CCC(=O)NC7=O)C8=O)nc6)C(C)(C)C5)c4)cn3)CC2)[C@@H]1N` (stereo partly drawn) [Compound 275]: the DC50 is > 1 µM.

Consider `C[C@@H]1OCC2(CCN(c3cnc(Sc4cccc(NC(=O)CCN5CC=C(c6ccc(C(=O)N7CCN(c8ccc9c(c8)CN(C8CCC(=O)NC8=O)C9=O)CC7)nc6)C(C)(C)C5)c4)cn3)CC2)[C@@H]1N` (stereo partly drawn) [Compound 276], for which the DC50 was > 1 µM.

With `CC1(N)CCN(c2cnc(Sc3cccc(NC(=O)c4ccc(N5CCC(N6CCN(c7ccc8c(c7)C(=O)N(C7CCC(=O)NC7=O)C8=O)CC6)CC5)c(F)c4)c3)cn2)CC1` (stereo not drawn) [Compound 277], the DC50 is > 1 µM.

On to `CC1(N)CCN(c2cnc(Sc3cccc(NC(=O)c4ccc(N5CCC(N6CCN(c7ccc8c(c7)CN(C7CCC(=O)NC7=O)C8=O)CC6)CC5)c(F)c4)c3)cn2)CC1` (stereo not drawn) [Compound 278], for which the DC50 was > 1 µM.

As for `C[C@@H]1OCC2(CCN(c3cnc(Sc4cccc(NC(=O)c5ccc(N6CCC(N7CCN(c8ccc9c(c8)C(=O)N(C8CCC(=O)NC8=O)C9=O)CC7)CC6)c(F)c5)c4)cn3)CC2)[C@@H]1N` (stereo partly drawn) [Compound 279], the DC50 is > 1 µM.

For `C[C@@H]1OCC2(CCN(c3cnc(Sc4cccc(NC(=O)c5ccc(N6CCC(N7CCN(c8ccc9c(c8)CN(C8CCC(=O)NC8=O)C9=O)CC7)CC6)c(F)c5)c4)cn3)CC2)[C@@H]1N` (stereo partly drawn) [Compound 280], the DC50 is > 1 µM.

In the case of `CC1(N)CCN(c2cnc(Sc3cccc(NC(=O)[C@H]4C[C@@H]4c4ccc(N5CCN(c6ccc(C(=O)NCc7ccc8c(c7)CN(C7CCC(=O)NC7=O)C8=O)nn6)CC5)c(F)c4)c3)cn2)CC1` (stereo partly drawn) [Compound 281], the half-maximal degradation concentration (DC50) was > 1 µM.

In the case of `C[C@@H]1OCC2(CCN(c3cnc(Sc4cccc(NC(=O)[C@H]5C[C@@H]5c5ccc(N6CCN(c7ccc(C(=O)NCc8ccc9c(c8)CN(C8CCC(=O)NC8=O)C9=O)nn7)CC6)c(F)c5)c4)cn3)CC2)[C@@H]1N` (stereo partly drawn) [Compound 282], the DC50 was > 1 µM.

Take `CC1(N)CCN(c2cnc(Sc3cccc(NC(=O)[C@H]4C[C@@H]4c4ccc(N5CCN(c6ccc(C(=O)N7CCN(c8ccc9c(c8)CN(C8CCC(=O)NC8=O)C9=O)CC7)nn6)CC5)c(F)c4)c3)cn2)CC1` (stereo partly drawn) [Compound 283]: the half-maximal degradation concentration (DC50) is > 1 µM.

For `C[C@@H]1OCC2(CCN(c3cnc(Sc4cccc(NC(=O)[C@H]5C[C@@H]5c5ccc(N6CCN(c7ccc(C(=O)N8CCN(c9ccc%10c(c9)CN(C9CCC(=O)NC9=O)C%10=O)CC8)nn7)CC6)c(F)c5)c4)cn3)CC2)[C@@H]1N` (stereo partly drawn) [Compound 284], the DC50 is < 0.1 µM.

Take `C[C@@H]1OCC2(CCN(c3cnc(Sc4cccc(NC(=O)c5ccc(CN6CCN(c7ccc8c(c7)CN(C7CCC(=O)NC7=O)C8=O)CC6)cc5)c4)cn3)CC2)[C@@H]1N` (stereo partly drawn) [Compound 285]: the DC50 is > 1 µM.

On to `CC1(N)CCN(c2cnc(Sc3cccc(NC(=O)c4ccc(CN5CCN(c6ccc7c(c6)CN(C6CCC(=O)NC6=O)C7=O)CC5)cc4)c3)cn2)CC1` (stereo not drawn) [Compound 286], for which the DC50 is > 1 µM.

As for `C[C@@H]1OCC2(CCN(c3cnc(Sc4cccc(NC(=O)c5ccc(CN6CCN(c7ccc8c(c7)C(=O)N(C7CCC(=O)NC7=O)C8=O)CC6)cc5)c4)cn3)CC2)[C@@H]1N` (stereo partly drawn) [Compound 287], the DC50 is > 1 µM.

With `CC1(N)CCN(c2cnc(Sc3cccc(NC(=O)c4ccc(CN5CCN(c6ccc7c(c6)C(=O)N(C6CCC(=O)NC6=O)C7=O)CC5)cc4)c3)cn2)CC1` (stereo not drawn) [Compound 288], the DC50 is > 1 µM.

With `C[C@@H]1OCC2(CCN(c3cnc(Sc4cccc(NC(=O)CCN5CCN(c6ccc(C(=O)NCc7ccc8c(c7)CN(C7CCC(=O)NC7=O)C8=O)nn6)CC5)c4)cn3)CC2)[C@@H]1N` (stereo partly drawn) [Compound 289], the DC50 was > 1 µM.

`CC1(N)CCN(c2cnc(Sc3cccc(NC(=O)C4CC45CCN(C4CCN(c6ccc(C(=O)NCc7ccc8c(c7)CN(C7CCC(=O)NC7=O)C8=O)nn6)CC4)CC5)c3)cn2)CC1` (stereo not drawn) [Compound 290]: the 50% degradation concentration (DC50) is > 1 µM.

On to `CC1(N)CCN(c2cnc(Sc3cccc(NCc4ccc(N5CCC(N6CCN(c7ccc8c(c7)C(=O)N(C7CCC(=O)NC7=O)C8)CC6)CC5)c(F)c4)c3)cn2)CC1` (stereo not drawn) [Compound 291], for which the 50% degradation concentration (DC50) was > 1 µM.

In the case of `Cc1ncsc1-c1ccc([C@H](C)NC(=O)[C@@H]2C[C@@H](O)CN2C(=O)[C@@H](NC(=O)c2cnc(N3CCN(C4CC(C(=O)Nc5cccc(Sc6cnc(N7CCC8(CC7)CO[C@@H](C)[C@H]8N)cn6)c5)C4)CC3)nc2)C(C)(C)C)cc1` (stereo partly drawn) [Compound 294, 2-(4-(3-((3-((5-((3S,4S)-4-amino-3-methyl-2-oxa-8-azaspiro[4.5]decan-8-yl)pyrazin-2-yl)thio)phenyl)carbamoyl)cyclobutyl)piperazin-1-yl)-N—((S)-1-((2S,4R)-4-hydroxyl-2-(((S)-1-(4-(4-methylthiazol-5-yl)phenyl)ethyl)carbamoyl)pyrrolin-1-yl)-3,3-dimethyl-1-oxobutane-2-yl)pyrimidine-5-formamide hydrochloride], the DC50 was < 0.1 µM.

Consider `CC1(N)CCN(c2cnc(Sc3cccc(NC(=O)c4ccc(N5CCC(N6CC=C(c7ccc(C(=O)NCc8ccc9c(c8)CN(C8CCC(=O)NC8=O)C9=O)nc7)CC6)CC5)c(F)c4)c3)cn2)CC1` (stereo not drawn) [Compound 295, hydrochloride], for which the DC50 is < 0.1 µM.

For `CC1(N)CCN(c2cnc(Sc3cccc(NC(=O)C4CC(N5CCC(N6CC=C(c7ccc(C(=O)NCc8ccc9c(c8)CN(C8CCC(=O)NC8=O)C9=O)nn7)CC6)CC5)C4)c3)cn2)CC1` (stereo not drawn) [Compound 296], the DC50 was < 0.1 µM.

As to `C[C@@H]1OCC2(CCN(c3cnc(Sc4cccc(NC(=O)c5cccc(CN6CCN(c7ccc8c(c7)CN(C7CCC(=O)NC7=O)C8=O)CC6)c5)c4)cn3)CC2)[C@@H]1N` (stereo partly drawn) [Compound 297], the DC50 was > 1 µM.

For `CC1(N)CCN(c2cnc(Sc3cccc(NC(=O)c4cccc(CN5CCN(c6ccc7c(c6)CN(C6CCC(=O)NC6=O)C7=O)CC5)c4)c3)cn2)CC1` (stereo not drawn) [Compound 298], the DC50 was > 1 µM.

In the case of `CC1(N)CCN(c2cnc(Sc3cccc(NC(=O)C4CC45CCN(c4ccc(C(=O)NCc6ccc7c(c6)CN(C6CCC(=O)NC6=O)C7=O)nn4)CC5)c3)cn2)CC1` (stereo not drawn) [Compound 299], the DC50 is > 1 µM.

Regarding `CC1(N)CCN(c2cnc(Sc3cccc(NC(=O)C4CC(N5CC=C(c6ccc(C(=O)NCc7ccc8c(c7)C(=O)N(C7CCC(=O)NC7=O)C8)nc6)CC5)C4)c3)cn2)CC1` (stereo not drawn) [Compound 302], the half-maximal degradation concentration (DC50) was > 1 µM.

`CC1(N)CCN(c2cnc(Sc3cccc(NC(=O)c4ccc(N5CCC(N6CC=C(c7ccc(C(=O)NCc8ccc9c(c8)CN(C8CCC(=O)NC8=O)C9=O)nc7)C(C)(C)C6)CC5)cc4)c3)cn2)CC1` (stereo not drawn) [Compound 303]: the DC50 was < 0.1 µM.

As for `CC1(N)CCN(c2cnc(Sc3cccc(NC(=O)c4ccc(N5CCC(N6CC=C(c7ccc(C(=O)N8CCN(c9ccc%10c(c9)CN(C9CCC(=O)NC9=O)C%10=O)CC8)nc7)C(C)(C)C6)CC5)cc4)c3)cn2)CC1` (stereo not drawn) [Compound 304], the DC50 was < 0.1 µM.

In the case of `CC1(N)CCN(c2cnc(Sc3cccc(NC(=O)C4CCC(N5CC=C(c6ccc(C(=O)N7CCN(c8ccc9c(c8)CN(C8CCC(=O)NC8=O)C9=O)CC7)nc6)CC5)CC4)c3)cn2)CC1` (stereo not drawn) [Compound 305], the DC50 is > 1 µM.

For the compound `CC1(N)CCN(c2cnc(Sc3cccc(NC(=O)c4ccc(N5CCC(C(=O)NCc6ccc7c(c6)CN(C6CCC(=O)NC6=O)C7=O)CC5)c(F)c4)c3)cn2)CC1` (stereo not drawn) [Compound 306], the DC50 is > 1 µM.

As to `CC1(N)CCN(c2cnc(Sc3cccc(NC(=O)c4ccc(C5=CCC(N6CC=C(c7ccc(C(=O)NCc8ccc9c(c8)CN(C8CCC(=O)NC8=O)C9=O)nc7)CC6)CC5)cc4)c3)cn2)CC1` (stereo not drawn) [Compound 307], the DC50 was < 0.1 µM.
